# Data taken from PubChem BioAssay (NCI).
# Several values for one entry are separate records, joined by “and”; a condition that tells them apart may be missing. Equal entries are not always repeated.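 Tested at 5 concentrations; 48 h exposure; 96-well plates; endpoints linearly interpolated, else capped at highest concentration. GI50: concentration for 50% inhibition of growth. At the TGI there is no net growth.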
# Experiments:
# Test in all cases: NCI tumour cell line growth inhibition, 48 h
# [1] = system: M19-MEL melanoma
# [2] = system: SNB-78 CNS
# [3] = system: SF-539 CNS
# [4] = system: DMS 273 small cell lung
# [5] = system: LOX IMVI melanoma
# [6] = system: KM20L2 colon
# [7] = system: DMS 114 small cell lung
# [8] = system: XF 498 CNS
# [9] = system: LXFL 529 NSCLC
# [10] = system: HOP-18 NSCLC
# [11] = system: DLD-1 colon
SMILES,TGI [3] [µM],TGI [5] [µM],further results
COC1=CC(=O)c2c(cc3c(c2O)-c2c(OC)cc4cc5c(c(O)c4c2OC(=O)CC(C)(O)C3)C(=O)CC(C)(O)C5)C1=O (stereo not given),3.67,2.94,TGI [1]: 1.52 µM; TGI [2]: 7.12 µM; TGI [4]: 5.31 µM; TGI [6]: 5.29 µM; TGI [7]: 3.58 µM; TGI [8]: 3.23 µM; TGI [9]: 4.6 µM; TGI [10]: 5.39 µM; TGI [11]: 9.01 µM
C=C1CC(C)(COc2cc(=O)oc3ccccc23)OC1=O (stereo not given),12.6,11.5,–
CC(=O)OCC1OC(OC(C)=O)C(Nc2ncc(-c3ccc(C)cc3)s2)C(OC(C)=O)C1OC(C)=O (stereo not given),37.7,32,–
CN1c2ccccc2C(=O)NC12CCNCC2,> 100,> 100,–
CCCCCC#COC1CC(C)CC[C@@H]1C(C)C (stereo not given in full),> 100,29.9,TGI [1]: > 100 µM; TGI [2]: > 100 µM; TGI [4]: > 100 µM; TGI [6]: > 100 µM; TGI [9]: > 100 µM; TGI [10]: > 100 µM; TGI [11]: > 100 µM
CN1CCN(c2ccc3[nH]c(C4=C(O)C(=O)[C@@H]5C(=C4O)N=C(CO)N5C)nc3n2)CC1,> 100,> 100,–
N#CCC1C2CC3C(C2=O)C13 (stereo not given),> 100,> 100,–
[N-]=[N+]=CC(=O)OCC1NC(=O)C(COC(=O)C=[N+]=[N-])NC1=O (stereo not given),> 100,> 100,–
CCC(c1ccc(OC)cc1)C1NC(=S)NC1=O (stereo not given),> 50,> 50,–
CCCn1c(=O)c2nn3c(=O)n(CCC)c(=O)c3nn2c1=O,> 100,> 100,–
CCN(CC)C(=S)N/N=C/c1cc(OC)ccc1O,36,12.5,–
Cc1cccc2c1c(=O)c1c(O)cc3c(c1n2C)C=CC(C)(C)O3,> 100,> 100,–
COc1cc2c(cc1O)Cc1c-2[n+](C)cc2cc(OC)c(OC)cc12,7.46,> 100,–
COC(=O)[C@H](COC(C)(C)C)NC(=O)N[C@H](C)c1ccccc1,> 100,> 100,–
Cc1cccc(N=C/C=C(\Cl)c2ccc3ccccc3c2)c1,40.7,9.27,–
COc1ccc(-n2c(Cn3nnc(-c4cccnc4)n3)nn(C3OC(COC(=O)c4ccccc4)C(OC(=O)c4ccccc4)C3OC(=O)c3ccccc3)c2=S)cc1 (stereo not given),> 100,> 100,–
CC(=O)Oc1ccc(Nn2c3ccccc3c3ccccc32)c(C)c1,–,–,TGI [1]: > 100 µM; TGI [2]: 91.2 µM; TGI [4]: 51.9 µM; TGI [6]: 78.9 µM; TGI [7]: 79.8 µM; TGI [8]: 77.3 µM; TGI [9]: > 100 µM; TGI [10]: 75.8 µM; TGI [11]: > 100 µM
c1ccc(-c2cc(-c3ccncc3)cc(-c3ccncc3)n2)cc1,–,> 100,–
COC(=O)[C@]1(C)CCC[C@]2(C)[C@@H](CCC(=O)C(C)C)[C@]3(C=O)O[C@@H]3C[C@H]21,> 100,92.3,–
c1ccc2nn(C3CCCO3)nc2c1 (stereo not given),> 100,–,–
CN1CC=C(c2cccn2C)CC1,–,> 100,–
CC(=O)N=c1ccc2nc(N)nn(O)c-2c1,> 100,> 100,–
Cn1nc(-c2ccccc2)c2c(-c3ccccc3)c3cc(Cl)ccc3nc21,–,> 100,–
C/C1=C/C[C@@H](/C(C)=C/c2csc(C)n2)OC(=O)C[C@H](O)C(C)(C)C(=O)[C@H](C)[C@@H](O)[C@@H](C)CCC1,< 0.0001,0.143,–
CC(C)COP(C)(=O)C(N)(C(F)(F)F)C(F)(F)F (stereo not given),> 100,> 100,–
CN1C(C)(C)CC(=O)C(Br)C1(C)C (stereo not given),–,> 100,–
COC(=O)c1ccc(C)cc1C1CN=NC12Cc1cc(C)ccc1C2=O (stereo not given),36.2,42.9,–

SMILES,TGI [3] [µM],TGI [5] [µM],further results
C=CC(=O)NCNC(=O)C=C,> 100,> 100,TGI [1]: > 100 µM; TGI [4]: > 100 µM; TGI [6]: > 100 µM; TGI [7]: > 100 µM; TGI [8]: > 100 µM; TGI [9]: > 100 µM; TGI [10]: > 100 µM; TGI [11]: > 100 µM
Oc1c(Cl)c(Cl)c(O)c(CCNc2nccs2)c1Cl,4.14,–,–
Cc1c2ccccc2c(C2C3C(=O)N(c4cccc5ccccc45)C(=O)C3ON2Cc2ccc(CC(N)=O)cc2)c2ccccc12 (stereo not given),> 50,> 50,–
CC[C@@H]1CC[C@@H]2[C@H](CC[C@]3(C)[C@@H](OC(C)=O)CC[C@@H]23)[C@H]1C(=O)OC,38.3,35.6,–
COc1cc2cc3c4cc(OC)c(OC)cc4cc[n+]3c(C)c2cc1OC,> 100,> 100,–
CC(=O)O[C@H]1CC[C@@]2(C)C(=CC[C@@H]3[C@@H]2CC[C@](C)(c2nnc(C)o2)[C@H]3CC#N)C1,> 100,> 100,–
O=C1CCCCC1C(O)(C(F)(F)F)C(F)(F)Cl (stereo not given),> 10,> 10,–
O=P(CCOc1ccccc1OCCP(=O)(c1ccccc1)c1ccc2c(c1)OCCOCCOCCOCCO2)(c1ccccc1)c1ccc2c(c1)OCCOCCOCCOCCO2 (stereo not given),> 100,> 100,TGI [1]: > 100 µM; TGI [2]: > 100 µM; TGI [4]: > 100 µM; TGI [6]: > 100 µM; TGI [7]: > 100 µM; TGI [8]: > 100 µM; TGI [9]: > 100 µM; TGI [11]: > 100 µM
c1ccc2cc(CNCCCCNCCCNCc3ccc4ccccc4c3)ccc2c1,3.47,0.358,–
CCCNCC(O)CNc1ccc(NCC(O)CNCCC)c2c1C(=O)c1ccccc1C2=O (stereo not given),5.11,3.62,–
CC(C)OC(=O)NNc1cccc(Cl)c1,> 100,> 100,–
CCOC(=O)C1(C#N)C(C#N)(C#N)C1(C#N)C#N,–,> 100,–
O=C1Nc2ccccc2/C1=C\c1c(-c2ccccc2)nc2n1CCS2,39.1,38.6,–
COc1ccc(NS(=O)c2c(C)cc(C)cc2C)cc1 (stereo not given),53.3,> 100,–
Fc1cccc(C2SCc3nc4cc5ccccc5cc4n32)c1 (stereo not given),> 100,> 100,–
CCCCCCCc1cscc1-c1cscc1Br,> 100,36.4,–
O=C(O)c1cccc(OCCOc2cccc(C(=O)O)c2[N+](=O)[O-])c1[N+](=O)[O-],> 100,> 100,–
Nc1nc(N)c2ncn(-c3ccccc3)c2n1,> 100,> 100,GI50 [3]: > 100 µM and 49.2 µM
O=C1C=CC(=O)c2cc(Sc3ccccc3)c(=O)c(Sc3ccccc3)cc21,> 100,> 100,TGI [1]: > 100 µM; TGI [4]: > 100 µM; TGI [6]: > 100 µM; TGI [7]: 53.7 µM; TGI [8]: > 100 µM; TGI [9]: 70.3 µM; TGI [10]: > 100 µM; TGI [11]: > 100 µM
Cc1c(-c2nc(N)c(C#N)c(N)c2C#N)c(=O)oc2ccccc12,> 100,> 100,–
S=C(Nc1ccc2c(c1)oc1ccccc12)c1cccs1,> 100,> 100,–
O=C(CCc1ccc(O)c(O)c1)NCCc1cc(O)c(O)c(O)c1,> 100,31.7,–
NC(Cc1ccccc1)c1nn[nH]n1 (stereo not given),> 100,> 100,–
C=C(CCC/C(C)=C/C=C/[C@H](C)CCCc1ccoc1)C[C@@H]1OC(=O)[C@H](C)[C@@H]1O,19.2,31.6,–
O=C(CCN1CCC(CCO)CC1)Nc1ccc2c(c1)C(=O)c1ccc(NC(=O)CCN3CCC(CCO)CC3)cc1C2=O,19.4,64,TGI [1]: > 100 µM; TGI [2]: 21.6 µM; TGI [4]: 19.8 µM; TGI [6]: 77.8 µM; TGI [7]: 21.7 µM; TGI [9]: 19.8 µM; TGI [10]: 80.1 µM; TGI [11]: 22.2 µM
COC(=O)CC(CNC(=O)OCc1ccccc1)OCc1ccc(OC)cc1 (stereo not given),> 100,> 100,–
C=CC(OC(=O)C(C)C)c1ccc(OC(=O)C(C)C)cc1 (stereo not given),30.7,16.6,–

SMILES,TGI [3] [µM],TGI [5] [µM],further results
CCCCCCCC(CC(=O)NC(CO)C(=O)NC(CO)CC(C)C)OC(=O)CC(CCCCCCC)OC(=O)CC(CCCCCCC)OC1OC(C)C(O)C(OC2OC(C)C(O)C(O)C2O)C1O (stereo not given),24.7,17.7,TGI [1]: 23.3 µM; TGI [2]: 39.1 µM; TGI [4]: 24 µM; TGI [6]: 32.1 µM; TGI [7]: 16.5 µM; TGI [9]: 18.1 µM; TGI [10]: 32.1 µM; TGI [11]: 31.7 µM
Cc1ccc(C(=O)N2CCCCC2)cc1N=NN(C)C,> 100,> 100,TGI [1]: > 100 µM; TGI [4]: > 100 µM; TGI [7]: > 100 µM; TGI [9]: > 100 µM; TGI [11]: > 100 µM
COc1ccc2c(c1)-c1nc(=O)n(CCCN(C)C)c3ccc([N+](=O)[O-])c(c13)N2,9.63,3.24,–
CCCCOC(=O)NC(Nc1ccc(S(=O)(=O)Nc2ncccn2)cc1)(C(F)(F)F)C(F)(F)F,> 100,> 100,–
Cc1cc(C)c(S(=O)(=O)N(CCCN)OCCON(CCCN)S(=O)(=O)c2c(C)cc(C)cc2C)c(C)c1,–,> 100,–
O=C1CC(C(OCc2ccccc2)C(OCc2ccccc2)C(OCc2ccccc2)C(COCc2ccccc2)OCc2ccccc2)CC(=O)N1 (stereo not given),–,> 100,–
O=C(Oc1c(Br)cc(Br)cc1C(=O)Oc1ccccc1)C(=O)Oc1c(Br)cc(Br)cc1C(=O)Oc1ccccc1,51.8,–,–
O=C(c1ccccc1)C(Nc1ccc2ccccc2c1)c1ccccc1 (stereo not given),> 100,> 100,–
CCOC(=O)C1=CNC(C(=O)OCC)C1c1cccn1-c1ccccc1 (stereo not given),47.1,31,–
Cc1ccc(SCC(CF)OC(C)n2cnc3c(Cl)nc(N)nc32)cc1 (stereo not given),> 100,> 100,–
COC(=O)[C@@H](OC(C)=O)[C@@H](OC(C)=O)c1nnc2ccc(Cl)nn12,> 100,> 100,–
CCCCCCCCCCCCCCCC(=O)Nc1ccn(C2CCC(COP(=O)(O)OCC3OC(n4cc(F)c(=O)[nH]c4=O)CC3OC(C)=O)O2)c(=O)n1 (stereo not given),> 23.3,39.8,–
CC1CCC2CC1NC(=O)CCOCCC(=O)NC2(C)C (stereo not given),> 100,> 100,–
CC(Cc1cccc2c1Nc1ccccc1S2)N(C)CCO (stereo not given),> 100,> 100,–
COc1ccccc1N1C(=O)CSC1c1cc(OC)c(OC)c(OC)c1 (stereo not given),> 100,> 100,–
CC(CNC(=O)c1ccccc1)(CNC(=O)c1ccccc1)[N+](=O)[O-],> 100,–,–
CC1(C)SCc2nc3ccccc3n21,> 100,> 100,–
O=c1oc2ccc3ccccc3c2cc1-c1cn2c(n1)sc1ccccc12,–,> 100,–
Nc1nc(Br)nc2ncn(C3CC(O)C(CO)O3)c12 (stereo not given),> 100,> 100,–
Cc1cnc2c(c1)C(=O)N(c1ccc([N+](=O)[O-])cc1)S2(=O)=O,> 100,> 100,–
OCC1OC(n2cnc3c(SCc4ccccc4)ncnc32)C(O)C1O (stereo not given),> 100,> 100,–
CN(C)CCN(C)C(=O)C1CCCN1C(=O)OCc1ccccc1 (stereo not given),> 100,> 100,TGI [1]: > 100 µM; TGI [2]: > 100 µM; TGI [4]: > 100 µM; TGI [6]: > 100 µM; TGI [7]: > 100 µM; TGI [8]: > 100 µM; TGI [9]: > 100 µM; TGI [11]: > 100 µM
O=C(NCCc1ccccc1)c1cc(/C=C/c2cc(O)ccc2O)ccc1O,5.94,17.5,–
C(=N\NC1=NCCN1)/c1cccc2cc3ccncc3nc12,21.2,3.39,–
CC(C)CC(NC=O)C(=O)NC(Cc1ccccc1)NC(=O)CNC(=O)C(C)NC(=O)C(N)Cc1ccc(O)cc1 (stereo not given),> 100,> 100,–
O=C1CCN2C(=N1)Sc1ccccc12,> 100,> 100,–
